Consider one compound from patent US8881823B2, “Environmentally friendly low temperature breaker systems and related methods” (Halliburton Energy Services, Inc., priority 2011, dated 2014).

Series [1] in a line: Multiple step return permeability test. To be noted: 20% GLDA solution in 11 lb/gal sodium bromide, 16 hours soak, approximately 110° F. From the text: To simulate the performance of a breaker solution in potential downhole applications, a 20% GLDA solution in 11 lb/gal sodium bromide was used in a multiple step return permeability test on a low permeability Berea Sandstone core plug. The following procedure was used.
A 1.0″ diameter core plug was cut out of a Berea Sandstone block having low permeability (about 20% porosity). The core plug was inserted into a containment sleeve of a manual return permeameter (MRP). The pressure chamber was sealed and the temperature was maintained at approximately 110° F., while the confining pressure was at approximately 2,500 psi. Once the temperature and overburden pressure stabilized, isoparaffin solvent (“SOLTROL® 170” commercially available from Chevron Phillips Chemical Company) filtered to 0.45 micron, was produced through the core at 4 ml/min against approximately 200 psi back-pressure. […] The initial and final permeability values were calculated using Darcy's Law for linear flow: […]
Treatment simulation in the lab involved three separate steps, each step potentially causing formation damage or a reduction in permeability. […] Once the displacement of the drill-in fluid was complete, the damage caused by the previous three injection steps was evaluated by pumping of SOLTROL® 170 through the core until a constant permeability was obtained using the same procedure used for the initial permeability. […]

The nature of series [2]: Calcite dissolving capacity of breaker systems. The format is physicochemical. To be noted: 2.5 g BARACARB 5 in 50 mL test fluid, one hour. The protocol: The calcite dissolving capacity of each breaker system was determined in the following manner. A known amount of a technical grade calcium carbonate (commercially available from Halliburton under the tradename “BARACARB 5”) was dried in an oven for 2 hours. […] The solution was subsequently filtered with a 1 micron fiber glass filter paper.

With `O=C(O)CC[C@@H](C(=O)O)N(CC(=O)O)CC(=O)O` [GLDA, L-glutamic acid N,N-diacetic acid], in series [1], the “return permeability after the breaker cleanup, % of the initial permeability” value is listed as 94%. In series [2], the “% Carbonate Complexed or Dissolved” value was found to be 19.6% and the “Final Weight of BARACARB 5, g” value is listed as 2.01 g.
